For 9 compounds, viability, T/C and IC50 results are on record in PubChem BioAssay AID1919000 (Molecular Pharmacology Branch, DTP, NCI, 2023).

Structures are written as SMILES. Where “and” joins values, the source holds several entries; their conditions need not be identical. Equal values may be shown once.

The subject of this experiment is 653999-131-R-J2-PDC complex spheroids, growth % test/control. The experiment in a line: Anticancer human tumor 653999-131-R-J2-PDC patient-derived lung adenocarcinoma cell line growth inhibition [AhR]. Conditions: for viability, T/C: stronger effect = lower value; for IC50: curve of compound. From the text:
Multicellular complex tumor spheroid response to aryl hydrocarbon receptor antagonists in combination with a variety of drugs and investigational agents in selected tumor cell lines
The current study was undertaken to assess response to aryl hydrocarbon receptor antagonists in combination with standard-of-care drugs and investigational agents in solid tumor complex spheroid models. Complex spheroids include a stromal component modeled by human endothelial cells (HUVEC) and fibroblasts modeled by human mesenchymal stem cells (MSCs). The concentration ranges selected for each drug and investigational agent were based upon clinically achievable concentrations if the clinical Cmax of the agent was known.
Compounds. The drugs and investigational agents: BAY 2416964 (NSC825713), GNF351 (NSC835774), CH-223191 (NSC835775), CPI-455 (NSC825282), aza-TdCyd (NSC777586), decitabine (NSC127716), belinostat (NSC758774), entinostat (NSC756642), pevonedistat (NSC761192), tazemetostat (NSC777109), talazoparib (NSC765396), olaparib (NSC753686), selinexor (NSC780203), nedisertib (M3814, NSC802822), bortezomib (NSC756655), venetoclax (NSC766270), doxorubicin (NSC123127), elimusertib (BAY189344, NSC800525), ceralasertib (AZD6738, NSC777638), TAK-243 (NSC785004), alisertib (NSC759677), etoposide (NSC141540), topotecan (NSC609699), eribulin (NSC707389), gemcitabine (NSC613327), carboplatin (NSC241240), cisplatin (NSC119875), and SN-38 (NSC673596) were obtained from the National Cancer Institute (NCI) Developmental Therapeutics Program Chemical Repository (32). The FDA-approved anticancer drug set is available from the Developmental Therapeutics Program at https://dtp.cancer.gov/organization/dscb/obtaining/available plates.htm. […] The stock solutions were prepared in dimethyl sulfoxide (DMSO, Sigma-Aldrich, St. Louis, MO, cat. D2650), except for the platinum compounds which were prepared in saline (Quality Biological, Gaithersburg, MD, cat. 114-055-101), at 800-fold the tested concentration and stored at -70 degrees C prior to their use. All drugs and investigational agents were tested over a range starting from a high concentration at or near the clinical Cmax and decreasing in half-log increments. If the clinical Cmax for an agent had not been determined, the highest concentration tested was 10 microM (Table 1).
Cell Culture. All cells were maintained in an incubator at 37 degrees C and 5% CO2 with 95% humidity. The PDC lines were cultured according to standard operating procedures established by the NCI PDMR (https://pdmr.cancer.gov). Briefly, all PDCs were thawed and cultured in Matrigel-coated flasks prepared with a working solution of 1X Ham's F-12 nutrient mix, without supplementation (Invitrogen, Waltham, MA, cat. 11765054), 100 U/mL penicillin-streptomycin (Invitrogen, cat. 15140122), and 2.5% Matrigel (Corning Inc., Corning, NY, cat. 354248) for the first three passages. All PDCs were cultured in complete DMEM/F-12 media containing advanced DMEM/F-12 (Invitrogen, cat. 12634028), 4.9% defined fetal bovine serum, heat inactivated (HyClone Laboratories Inc., Logan, UT, cat. SH30070.03HI), 389 ng/mL hydrocortisone (Sigma-Aldrich, cat. H4001), 9.7 ng/mL human EGF recombinant protein (Invitrogen, cat. PHG0313), 23.4 microg/mL adenine (Sigma-Aldrich, cat. A2786), 97.3 U/mL penicillin-streptomycin (Invitrogen, cat. 15140122), 1.9 mM L-glutamine (Invitrogen, cat. 25030081), and 9.7 microM Y-27632 dihydrochloride (Tocris Bioscience, Bristol, United Kingdom, cat. 1254). The PDCs were cultured in complete DMEM/F12 media without 10 microM Y-27632 dihydrochloride for at least two passages prior to the screen. The established cell lines NCI-H1341 and […] were cultured in DMEM/F-12, HEPES (Invitrogen, cat. 11330032), 5% defined fetal bovine serum (HyClone Laboratories Inc., cat. SH30070.03), ITS premix universal culture supplement [insulin (5 microg/mL), transferrin (5 microg/mL), and selenious acid (5 ng/mL)] […]
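Note: spheroids exposed to agents for seven days.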

On to `CC(C)CC(NC(=O)C(Cc1ccccc1)NC(=O)c1cnccn1)B(O)O` (stereo not drawn), for which the IC50 is 22.4 nM and 21.1 nM and 12.4 nM. The viability, T/C (compound 0.000949 µM) was 112% and 106% and 110%. For the same compound, where the note is “compound 0.003 µM”, the viability, T/C is 118% and 114% and 124%. For the same compound, the viability, T/C (compound 0.00949 µM) is 107% and 96.5% and 60.7%. The viability, T/C (compound 0.03 µM) is 30.4% and 28.9% and 21.5%. The viability, T/C (compound 0.0949 µM) was 11.3% and 14.9% and 9.51%. The viability, T/C (compound 0.3 µM) is 3.46% and 4.18% and 3.51%.
As for `CC1(C)CCC(CN2CCN(c3ccc(C(=O)NS(=O)(=O)c4ccc(NCC5CCOCC5)c([N+](=O)[O-])c4)c(Oc4cnc5[nH]ccc5c4)c3)CC2)=C(c2ccc(Cl)cc2)C1`, the IC50 is > 10000 nM. Besides, the viability, T/C (compound 0.0316 µM) was 108% (2×) and 103%. Moreover, the viability, T/C (compound 0.1 µM) is 97.3% and 103% and 116%. For the same compound, the viability, T/C (compound 0.316 µM) was 98% and 88.8% and 104%. Moreover, the viability, T/C (compound 1 µM) is 105% and 102% and 104%. Further, the viability, T/C (compound 3.16 µM) was 106% and 99.7% and 108%. Also, the viability, T/C (compound 10 µM) is 85.9% and 58.9% and 74.9%.
Turning to `CC1COCCN1c1cc(-c2ccnn2C)c2ccnc(-c3ccn[nH]3)c2n1` (stereo not drawn), the IC50 was 141 nM and 142 nM and 194 nM. Further, the viability, T/C (compound 0.00316 µM) is 97.3% and 102% and 106%. For the same compound, the viability, T/C (compound 0.01 µM) was 92.7% and 98.5% and 104%. In addition, the viability, T/C (compound 0.0316 µM) was 77.3% and 77.9% and 90.3%. In addition, the viability, T/C (compound 0.1 µM) is 58.7% and 58.6% and 62.5%. For the same compound, for the setting “compound 0.316 µM”, the viability, T/C was 32.9% and 34% and 41.3%. The viability, T/C (compound 1 µM) is 24% and 30.5% and 29.1%.
Take `CCN(c1cc(-c2ccc(CN3CCOCC3)cc2)cc(C(=O)NCc2c(C)cc(C)[nH]c2=O)c1C)C1CCOCC1`: the IC50 was > 3000 nM. Besides, the viability, T/C (compound 0.00949 µM) was 105% and 101% and 115%. In addition, for the setting “compound 0.03 µM”, the viability, T/C was 104% and 95.7% and 106%. For the same compound, where the note is “compound 0.0949 µM”, the viability, T/C is 114% and 88.5% and 110%. Further, the viability, T/C (compound 0.3 µM) was 102% and 89.3% and 100%. Further, the viability, T/C (compound 0.949 µM) was 108% and 98.8% and 96.9%. In addition, the viability, T/C (compound 3 µM) is 94.6% and 104% and 96.3%.
For the compound `CC[C@@]1(O)C(=O)OCc2c1cc1n(c2=O)Cc2cc3c(CN(C)C)c(O)ccc3nc2-1`, the IC50 was 84.8 nM and 51.8 nM and 86.6 nM. Further, the viability, T/C (compound 0.000316 µM) was 118% and 95.5% and 101%. The viability, T/C (compound 0.001 µM) was 100% and 95.1% and 108%. The viability, T/C (compound 0.00316 µM) was 91.8% and 99.8% and 102%. The viability, T/C (compound 0.01 µM) was 80.7% and 79.8% and 91.8%. For the same compound, the viability, T/C (compound 0.0316 µM) was 69.5% and 61.3% and 63.9%. For the same compound, under “compound 0.1 µM”, the viability, T/C was 44.3% and 36.5% and 48%.
Turning to `CCc1c2c(nc3ccc(O)cc13)-c1cc3c(c(=O)n1C2)COC(=O)[C@]3(O)CC`, the IC50 is 14.6 nM and 22.1 nM and 9.27 nM. In addition, the viability, T/C (compound 0.000949 µM) is 79% and 89.9% and 76.4%. For the same compound, where the note is “compound 0.003 µM”, the viability, T/C was 75.3% and 80.9% and 76.6%. Moreover, for the setting “compound 0.00949 µM”, the viability, T/C was 54.4% and 59.1% and 45.1%. Also, the viability, T/C (compound 0.03 µM) is 38.8% and 44.1% and 33.3%. For the same compound, the viability, T/C (compound 0.0949 µM) was 29.4% and 35.4% and 27.7%. Under “compound 0.3 µM”, the viability, T/C was 20.6% and 19.6% and 16.8%.
For the compound `COc1cc(C2c3cc4c(cc3C(OC3OC5COC(C)OC5C(O)C3O)C3COC(=O)C23)OCO4)cc(OC)c1O` (stereo not drawn), the IC50 was 924 nM and 1560 nM and 1450 nM. Further, the viability, T/C (compound 0.0316 µM) was 99.2% and 89.8% and 87.8%. Moreover, for the setting “compound 0.1 µM”, the viability, T/C was 79.3% and 77.8% and 77.9%. Besides, the viability, T/C (compound 0.316 µM) was 61.9% and 67.7% and 69.8%. In addition, where the note is “compound 1 µM”, the viability, T/C is 49.1% and 55.2% and 50.4%. Also, the viability, T/C (compound 3.16 µM) is 39.3% and 43.3% and 43.5%. Where the note is “compound 10 µM”, the viability, T/C was 29.4% and 25.6% and 27.5%.
With `COc1cc(Nc2ncc3c(n2)-c2ccc(Cl)cc2C(c2c(F)cccc2OC)=NC3)ccc1C(=O)O`, the IC50 is > 10000 nM. Also, the viability, T/C (compound 0.0316 µM) was 93.1% and 93.5% and 98%. Further, the viability, T/C (compound 0.1 µM) is 73% and 85% and 75.2%. In addition, for the setting “compound 0.316 µM”, the viability, T/C is 75.1% and 70.2% and 68.6%. Further, under “compound 1 µM”, the viability, T/C was 71.5% and 66.9% and 67.2%. For the setting “compound 3.16 µM”, the viability, T/C is 66.2% and 68.2% and 70.6%. In addition, where the note is “compound 10 µM”, the viability, T/C was 60.7% and 64.3% and 65.4%.
Turning to `COc1cccc2c1C(=O)c1c(O)c3c(c(O)c1C2=O)CC(O)(C(=O)CO)CC3OC1CC(N)C(O)C(C)O1` (stereo not drawn), the IC50 was 66.2 nM and 65.3 nM and 132 nM. Further, where the note is “compound 0.0316 µM”, the viability, T/C is 62.4% and 56% and 66.2%. For the same compound, for the setting “compound 0.1 µM”, the viability, T/C is 40.9% and 45.6% and 56.4%. In addition, the viability, T/C (compound 0.316 µM) was 28.3% and 26.5% and 28.1%. Also, for the setting “compound 1 µM”, the viability, T/C is 7.89% and 10.5% and 10.6%. The viability, T/C (compound 3.16 µM) was 3.94% and 7.29% and 3.85%. Also, where the note is “compound 10 µM”, the viability, T/C is 10.6% and 20.5% and 19.3%.
